Assays:
Assay type in all cases: biochemical, Trypanosoma congolense
T. congolense TS1b [1] = test system: T1, T. congolense TS1b; assay: HPAEC-PAD quantification of […]'Sia-Gal-MU, Michaelis-Menten fit; conditions: acceptor substrate; donor 50 nmol 3'SL in 50 μL (Figure 7 legend; text b29 says fetuin, 600 μM bound Sia); 37°C, 30 min; read-out: Acceptor substrates / Gal-MU / KM
T1 construct: residues 17-732 without signal peptide and GPI anchor region; C-terminal 3C site, SNAP and Strep tags; secreted from CHO Lec1 cells; 120 kDa with tags

T. congolense TS1 e-1 [2] = test system: T2, T. congolense TS1 e-1; assay: as above; conditions: acceptor substrate; donor 50 nmol 3'SL in 50 μL (Figure 7 legend; text b29 says fetuin, 600 μM bound Sia); 37°C, 30 min; read-out: Acceptor substrates / Gal-MU / KM
T2 construct: residues 17-732 without signal peptide and GPI anchor region; C-terminal 3C site, SNAP and Strep tags; secreted from CHO Lec1 cells; 120 kDa with tags

T. congolense TS1b [3] = test system: T1, T. congolense TS1b; assay: HPAEC-PAD quantification of […]'-sialyllactose, Michaelis-Menten fit; conditions: acceptor substrate; donor fetuin (600 μM bound Sia); pH 7.4-7.5, 37°C, 30 min; read-out: Acceptor substrates / Lactose / KM
T. congolense TS1 e-1 [4] = test system: T2, T. congolense TS1 e-1; assay: as above; conditions: acceptor substrate; donor fetuin (600 μM bound Sia); pH 7.4-7.5, 37°C, 30 min; read-out: Acceptor substrates / Lactose / KM

## Cc1cc(=O)oc2cc(O[C@@H]3O[C@H](CO)[C@H](O)[C@H](O)[C@H]3O)ccc12 [Gal-MU, 4-methylumbelliferyl ß-D-galactoside]
T. congolense TS1b [1]
  Km: 57 ± 14 µM
T. congolense TS1 e-1 [2]
  Km: 74 ± 17 µM

## OC[C@H]1O[C@@H](O[C@H]2[C@H](O)[C@@H](O)C(O)O[C@@H]2CO)[C@H](O)[C@@H](O)[C@H]1O (stereo partly shown) [lactose]
T. congolense TS1b [3]
  Km: 1.68 ± 0.101 mM
T. congolense TS1 e-1 [4]
  Km: 727 ± 48 µM

Source: paper PMC3173295, “Biochemical characterization of trans-sialidase TS1 variants from Trypanosoma congolense” (BMC Biochemistry, 2011)
